System: U2OS cells (ATCC HTB-96) transfected with cyclin B1 promoter/D-box/CRS-GFP cell cycle reporter construct
Assay: Effect of cell cycle blocking agents on GFP fluorescence from cell cycle phase marker, transiently transfected cells
Format: cell-based
Settings: U2OS cells 24 hours after transfection, exposed to blocker for a further 24 hours; confocal scanning imager with automated image analysis; control = culture media alone
Procedure: U2OS cells (ATCC HTB-96) were cultured in wells of a 96 well microtitre plate. Cells were transfected with a cell cycle reporter construct prepared according to Example 1, comprising a cyclin B1 promoter operably linked to sequences encoding the cyclin B1 D-box, the cyclin B1 CRS, and GFP in a pCORON4004 vector (Amersham Biosciences) using Fugene 6 (Roche) as the transfection agent.
Following 24 hours of culture, cells were exposed to the specific cell cycle blockers mimosine (blocks at G1/S phase boundary) or demecolcine (blocks in M phase). Control cells were exposed to culture media alone.
Cells were incubated for a further 24 hours and then analysed for nuclear GFP expression using a confocal scanning imager with automated image analysis (IN Cell Analysis System, Amersham Biosciences).

With `NC(Cn1ccc(=O)c(O)c1)C(=O)O` (centres unmarked) [mimosine] the “nuclear GFP expression (fluorescence) compared to control cells” value was “decreased fluorescence compared to control cells”.
In the case of `CN[C@H]1CCc2cc(OC)c(OC)c(OC)c2-c2ccc(OC)c(=O)cc21` [demecolcine], the “nuclear GFP expression (fluorescence) compared to control cells” value is reported as “increased fluorescence compared to control cells”.
